{"source": "paper PMC8011376", "about": "(Journal of the American Chemical Society, 2020)", "test_in_all_cases": "MIC determination, broth microdilution", "key": {"[1]": {"tested_on": "K. pneumoniae", "format": "cell-based, Klebsiella pneumoniae", "conditions": "listed as measured MICs for polymyxin-supplemented assays"}, "[2]": {"tested_on": "E. coli DH5α", "format": "cell-based, Escherichia coli", "conditions": "listed as measured MICs for polymyxin-supplemented assays"}, "[3]": {"tested_on": "A. baumannii", "format": "cell-based, Acinetobacter baumannii", "conditions": "listed as measured MICs for polymyxin-supplemented assays"}, "[4]": {"tested_on": "P. aeruginosa", "format": "cell-based, Pseudomonas aeruginosa", "conditions": "listed as measured MICs for polymyxin-supplemented assays"}, "[5]": {"tested_on": "E. cloacae ATCC 13047", "format": "cell-based, Enterobacter cloacae"}}, "data": [{"substance": "polymyxin", "values": [{"measurement": "MIC of polymyxin", "setting": "[1]", "result": 0.15, "unit": "µg/mL"}, {"measurement": "MIC of polymyxin", "setting": "[2]", "result": 0.0625, "unit": "µg/mL"}, {"measurement": "MIC of polymyxin", "setting": "[3]", "result": 0.3, "unit": "µg/mL"}, {"measurement": "MIC of polymyxin", "setting": "[4]", "result": 0.15, "unit": "µg/mL"}, {"measurement": "MIC of polymyxin", "setting": "[5]; E. cloacae ATCC 13047, strain not susceptible (note)", "result": "> 64", "unit": "µg/mL"}, {"measurement": "MIC of polymyxin", "setting": "[5]; E. cloacae, value in the list of measured MICs", "result": 2, "unit": "µg/mL"}]}]}
